Measured values taken from patent publication US20080194585A1, “Fungicidal Pyrazine Derivatives” (priority 2005, published 2008).
Marks after values point to notes of the source that are not given here.

Key:
Septoria nodorum = assay: Test H: wheat glum blotch, preventive spray on wheat seedlings
Protocol: (the causal agent of wheat glum blotch) and incubated in a saturated atmosphere at 20° C. for 48 h, and then moved to a growth chamber at 22° C. for 5 days, after which disease ratings were made.

Rhizoctonia oryzae = assay: Test G: turf brown patch, preventive spray on creeping bent grass seedlings
Protocol: (the causal agent of turf brown patch) and incubated in a saturated atmosphere at 27° C. for 24 h, and then moved to a growth chamber at 27° C. for 5 days, after which disease ratings were made.

Phytophthora infestans = assay: whole plant or invertebrate; format: in vivo
Botrytis cinerea = assay: Test E: tomato botrytis, preventive spray on tomato seedlings
Septoria tritici = assay: Test J: wheat leaf blotch, preventive spray on wheat seedlings; format: in vivo
Text: A dash (-) indicates no test results.

[1] = system: Puccinia recondita f. sp. tritici; assay: Test K: wheat leaf rust, preventive spray on wheat seedlings
Pythium aphanidermatum = assay: Test A: bluegrass pythium blight, preventive spray on bluegrass seedlings
[2] = system: Colletotrichum orbiculare; assay: Test B: cucumber Colletotrichum anthracnose, preventive spray on cucumber seedlings
[3] = system: Erysiphe graminis f. sp. tritici; assay: Test L: wheat powdery mildew, preventive spray on wheat seedlings
Plasmopara viticola = assay: Test D: grape downy mildew, spray after inoculation of grape seedlings; format: in vivo
Text: Upon removal, disease ratings were made. […] A dash (-) indicates no test results.

Sclerotinia sclerotiorum = assay: Test C: cucumber white mold, preventive spray on cucumber seedlings

Row | Structure (SMILES) | Test H disease control rating (Septoria nodorum; 200 ppm) [%] | Test G disease control rating (Rhizoctonia oryzae; 200 ppm) [%] | Test F disease control rating (Phytophthora infestans; 200 ppm) [%] | Test E disease control rating (Botrytis cinerea; 200 ppm) [%] | Test J disease control rating (Septoria tritici; 200 ppm) [%] | Test K disease control rating ([1]; 200 ppm) [%] | Test A disease control rating (Pythium aphanidermatum; 200 ppm) [%] | Test B disease control rating ([2]; 200 ppm) [%] | Test L disease control rating ([3]; 200 ppm) [%] | Test D disease control rating (Plasmopara viticola; 200 ppm) [%] | Test C disease control rating (Sclerotinia sclerotiorum; 200 ppm) [%] | Test H disease control rating (Septoria nodorum; 40 ppm (*)) | Test G disease control rating (Rhizoctonia oryzae; 40 ppm (*)) | Test F disease control rating (Phytophthora infestans; 40 ppm (*)) | Test E disease control rating (Botrytis cinerea; 40 ppm (*)) | Test J disease control rating (Septoria tritici; 40 ppm (*)) | Test K disease control rating ([1]; 40 ppm (*)) | Test A disease control rating (Pythium aphanidermatum; 40 ppm (*)) | Test B disease control rating ([2]; 40 ppm (*)) | Test L disease control rating ([3]; 40 ppm (*)) | other results
1 | O=c1c(-n2cncn2)nc(Cl)c(-c2c(F)cccc2F)n1-c1ccccc1 [compound 162] | 0 | 47 | 0 | 85 | 100 | 27 | 0 | 9 | 0 | 8 | 0 | – | – | – | – | – | – | – | – | – | –
2 | CCC(C)Cn1c(-c2ccc(F)cc2Cl)c(Cl)nc(-n2cccn2)c1=O (stereo not shown) [compound 164] | 100 | 74 | 0 | 100 | 100 | 100 | 0 | 100 | 100 | 44 | 91 | – | – | – | – | – | – | – | – | – | –
3 | CC(C)Cn1c(-c2ccccc2F)c(Cl)nc(-n2cccn2)c1=O [compound 174] | – | – | – | – | – | – | – | – | – | – | – | 99* % | 62* % | 0* % | 100* % | 100* % | 99* % | 0* % | 0* % | 98* % | Test D disease control rating (Plasmopara viticola; 40 ppm (*)): 15* %; Test C disease control rating (Sclerotinia sclerotiorum; 40 ppm (*)): 0* %
4 | CC(C)Cn1c(-c2ccccc2F)c(Cl)nc(-n2cncn2)c1=O [compound 175] | 99 | 91 | 0 | 99 | 98 | 60 | 0 | 0 | 92 | 12 | 0 | – | – | – | – | – | – | – | – | – | –
5 | COc1ccccc1-c1c(Cl)nc(-n2cccn2)c(=O)n1CC(C)C [compound 176] | 73 | 56 | 0 | 99 | 94 | 0 | 0 | 0 | 0 | 4 | 0 | – | – | – | – | – | – | – | – | – | –
6 | CC(C)(C)CCn1c(-c2c(F)cccc2F)c(Cl)nc(-n2cccn2)c1=O [compound 182] | 0 | 31 | 0 | 91 | 100 | 85 | 0 | 0 | 85 | 0 | 0 | – | – | – | – | – | – | – | – | – | –
7 | Cn1c(-c2c(F)cccc2F)c(Cl)nc(-n2cccn2)c1=O [compound 185] | – | – | – | – | – | – | – | – | – | – | – | 0* % | 0* % | 0* % | 81* % | 8* % | 0* % | 0* % | 0* % | 90* % | Test D disease control rating (Plasmopara viticola; 40 ppm (*)): 8* %; Test C disease control rating (Sclerotinia sclerotiorum; 40 ppm (*)): 0* %
8 | CSCC(C)n1c(-c2c(F)cccc2F)c(Cl)nc(-n2cccn2)c1=O (stereo not shown) [compound 198] | – | – | – | – | – | – | – | – | – | – | – | 0* % | 0* % | 0* % | 0* % | 0* % | 0* % | 0* % | 0* % | 0* % | Test D disease control rating (Plasmopara viticola; 40 ppm (*)): 8* %; Test C disease control rating (Sclerotinia sclerotiorum; 40 ppm (*)): 0* %
9 | CSCC(C)n1c(-c2c(F)cccc2F)c(Cl)nc(-n2cncn2)c1=O (stereo not shown) [compound 199] | – | – | – | – | – | – | – | – | – | – | – | 0* % | 0* % | 0* % | 0* % | 1* % | 0* % | 0* % | 0* % | 0* % | Test D disease control rating (Plasmopara viticola; 40 ppm (*)): 4* %; Test C disease control rating (Sclerotinia sclerotiorum; 40 ppm (*)): 0* %
10 | CC(CS(C)(=O)=O)n1c(-c2c(F)cccc2F)c(Cl)nc(-n2cccn2)c1=O (stereo not shown) [compound 200] | – | – | – | – | – | – | – | – | – | – | – | 0* % | 0* % | 0* % | 0* % | 9* % | 0* % | 0* % | 0* % | 0* % | Test D disease control rating (Plasmopara viticola; 40 ppm (*)): 8* %; Test C disease control rating (Sclerotinia sclerotiorum; 40 ppm (*)): 0* %
11 | CC(CS(C)(=O)=O)n1c(-c2c(F)cccc2F)c(Cl)nc(-n2cncn2)c1=O (stereo not shown) [compound 201] | – | – | – | – | – | – | – | – | – | – | – | 0* % | 0* % | 0* % | 0* % | 0* % | 0* % | 0* % | 0* % | 0* % | Test D disease control rating (Plasmopara viticola; 40 ppm (*)): 0* %; Test C disease control rating (Sclerotinia sclerotiorum; 40 ppm (*)): 0* %
12 | Cc1cccc(C)c1-c1c(Cl)nc(-n2cccn2)c(=O)n1CC(C)C [compound 202] | 99 | 99 | 0 | 100 | 100 | 100 | 45 | 93 | 99 | 12 | 0 | – | – | – | – | – | – | – | – | – | –
13 | CC(C)Cn1c(C(C)(C)C)c(Cl)nc(-n2cccn2)c1=O [compound 203] | 0 | 0 | 0 | 0 | 0 | 0 | 74 | 0 | 0 | 12 | 0 | – | – | – | – | – | – | – | – | – | –
14 | CC(C)Cn1c(C(C)C)c(Cl)nc(-n2cccn2)c1=O [compound 204] | 0 | 95 | 0 | 98 | 90 | 98 | 0 | 0 | 99 | 12 | 0 | – | – | – | – | – | – | – | – | – | –
